Data taken from patent US4077952A, “Somatostatin analogs” (American Home Products Corporation, priority 1977, dated 1978).
Positions of bridges follow the written chain, without caps; N, C: chain ends. Non-standard residues stand in square brackets, D forms with d. Residues, ends and D or L forms follow the SMILES beside them.

Columns and labels:
Assay type in all cases: in vivo
Conditions in all cases: albino male rats, blood 15 min after compound, 5 min after arginine
insulin (INS) = assay: Suppression of insulin in arginine-stimulated, nembutal-anesthetized rats
Protocol: (§1) Albino male rats are arranged in two groups (nine rats/group) and injected i.p. with nembutal at 50 mg/kg. Fifteen minutes after the nembutal injection they are injected s.c. according to group with test compound, or physiological saline. Ten minutes later 0.5 ml. of arginine (300 mg/ml. pH 7.2) is injected into the heart. The rats are decapitated five minutes after receiving the arginine, and the blood is collected into Trasylol-EDTA. Appropriate aliquots are then assayed for growth hormone (GH), glucagon (GLUN), and insulin (INS). […] Comparisons between control and experimental values are statistically evaluated by the analysis of variants method and statistical significance (p) at 0.05 or lower is used as the index of activity.

growth hormone (GH) = assay: Suppression of growth hormone in arginine-stimulated, nembutal-anesthetized rats
Protocol: as §1

glucagon (GLUN) = assay: Suppression of glucagon in arginine-stimulated, nembutal-anesthetized rats
Protocol: as §1

## C[C@@H](O)[C@@H]1NC(=O)[C@H](Cc2ccccc2)NC(=O)[C@H]([C@@H](C)O)NC(=O)[C@H](CCCCN)NC(=O)[C@@H](Cc2c[nH]c3ccccc23)NC(=O)[C@H](Cc2ccccc2)NC(=O)[C@H](Cc2ccccc2)NC(=O)[C@H](Cc2c[nH]cn2)NC(=O)[C@H](CCCNC(=N)N)NC(=O)[C@@H](N)CSSC[C@@H](C(=O)O)NC(=O)[C@H](CO)NC1=O [Example 2, L-Cysteinyl-L-Arginyl-L-Histidyl-L-Phenylalanyl-L-Phenylalanyl-D-Tryptophyl-L-Lysyl-L-Threonyl-L-Phenylalanyl-L-Threonyl-L-Seryl-L-Cysteine Cyclic (1-12) Disulfide] (H-CRHFF[dW]KTFTSC-OH; disulfide 1-12)
Insulin (INS); Experiment 1, 100 μg/kg s.c., saline control 177 ± 19
  INS plasma level: 52 ± 16 μU/ml
Insulin (INS); Experiment 2, 10 μg/kg s.c., saline control 262 ± 26
  INS plasma level: 238 ± 72 μU/ml
Growth hormone (GH); Experiment 1, 100 μg/kg s.c., saline control 257 ± 49
  GH plasma level: 61 ng/mL
Growth hormone (GH); Experiment 2, 10 μg/kg s.c., saline control 131 ± 43
  GH plasma level: 71 ± 21 ng/mL
Glucagon (GLUN); Experiment 1, 100 μg/kg s.c., saline control 61 ± 9
  GLUN plasma level: 0 ± 0 pg/mL
Glucagon (GLUN); Experiment 2, 10 μg/kg s.c., saline control 42 ± 6
  GLUN plasma level: 4 ± 3 pg/mL
